Like-named read-outs stand apart in the source and are kept apart here.
Assays:
Type in all cases: cell-based, human
[1] = system: MYB mRNA; test: Splicing RT-qPCR assay, MYB canonical (CJ) and alternative (AJ) junction mRNA; details: Tables 4A/4B, canonical junction qPCR panel, read-out: MYB (IC50, decrease in CJ mRNA, gene panel)
In short: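 One-step RT-qPCR on cell lysates, CJ and AJ isoforms quantified; housekeeping normalization GAPDH/GUSB (K562) or PPIA (A673). Cells: A673 in DMEM/10% FBS or K562 in IMDM/10% FBS. Compounds 11-pt 3-fold, top 10 uM, 24 h, 37 °C, 5% CO2.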

[2] = system: SMN2 mRNA; test: Splicing RT-qPCR gene panel, SMN2 canonical junction (CJ) mRNA; details: Tables 4A/4B, read-out: SMN2 (IC50, decrease in CJ mRNA, gene panel)
Experimental: (§1) Compounds described herein were used to modulate RNA transcript abundance in cells. The expression of a target mRNA was measured by detecting the formation of an exon-exon junction in the canonical transcript (CJ). A compound mediated exon-inclusion event was detected by observing an increase in formation of a new junction with an alternative exon (AJ). Real-time qPCR assays were used to detect these splicing switches and interrogate the potency of various compounds towards different target genes. A high-throughput real time quantitative PCR (RT-qPCR) assay was developed to measure these two isoforms of the mRNA (CJ and AJ) for exemplary genes, such as HTT, SMN2, and MYB, together with a control housekeeping gene, GAPDH or GUSB or PPIA, used for normalization. Briefly, the A673 or K562 cell line was treated with various compounds described herein (e.g., compounds of Formula (I)). After treatment, the levels of the HTT, MYB, or SMN2 mRNA targets were determined from each sample of cell lysate by cDNA synthesis followed by qPCR.
(§2) The A673 cell line was cultured in DMEM with 10% FBS. Cells were diluted with full growth media and plated in a 96-well plate (15,000 cells in 100 ul media per well). The plate was incubated at 37° C. with 5% CO2 for 24 hours to allow cells to adhere. An 11-point 3-fold serial dilution of the compounds was made in DMSO then diluted in media in an intermediate plate. Compounds were transferred from the intermediate plate to the cell plate with the top dose at a final concentration of 10 uM in the well. Final DMSO concentration was kept at or below 0.25%. The cell plate was returned to the incubator at 37° C. with 5% CO2 for an additional 24 hours.
(§3) The K562 cell line was cultured in IMDM with 10% FBS. For K562, cells were diluted with full growth media and plated in either a 96-well plate (50,000 cells in 50 uL media per well) or a 384-well plate (8,000-40,000 cells in 45 uL media per well). An 11-point 3-fold serial dilution of the compounds were made in DMSO then diluted in media in an intermediate plate. Compound was transferred from the intermediate plate to the cell plate with the top dose at a final concentration of 10 uM in the well. Final DMSO concentration was kept at or below 0.25%. Final volume was 100 uL for 96-well plate and 50 uL for 384-well plate. The cell plate was then placed in an incubator at 37° C. with 5% CO2 for 24 hours.
(§4) The cells were then gently washed with 50 uL-100 uL cold PBS before proceeding to addition of lysis buffer. 30 uL-50 uL of room temperature lysis buffer with DNAse I (and optionally RNAsin) was added to each well. Cells were shaken/mixed thoroughly at room temperature for 5-10 minutes for lysis to take place and then 3 uL-5 uL of room temperature stop solution was added and wells were shaken/mixed again. After 2-5 minutes, the cell lysate plate was transferred to ice for RT-qPCR reaction setup. The lysates could also be frozen at −80° C. for later use.
(§5) In some cases, a direct lysis buffer was used. An appropriate volume of 3× lysis buffer (10 mM Tris, 150 mM NaCl, 1.5%-2.5% Igepal and 0.1-1 U/uL RNAsin, pH 7.4) was directly added to either K562 or A673 cells in media and mixed by pipetting 3 times. The plates were then incubated at room temperature with shaking/rocking for 20-50 minutes to allow for lysis to take place. After this time, the cell lysate plate was transferred to ice to set up for the RT-qPCR reactions. The lysates could also be frozen at −80° C. for later use.
(§6) To set up 10 uL RT-qPCR reactions, cell lysates were transferred to 384-well qPCR plates containing the master mix according to the table below. The plates were sealed, gently vortexed, and spun down before the run. The volumes were adjusted accordingly in some instances where the reaction was carried in 20 μL. The table below summarizes the components of the RT-qPCR reactions:
(§7) The RT-qPCR reaction was performed using a QuantStudio (ThermoFisher) under the following fast cycling conditions. […]

[3] = system: Target C mRNA; test: Splicing RT-qPCR gene panel, Target C canonical junction (CJ) mRNA; details: Tables 4A/4B, read-out: Target C (IC50, decrease in CJ mRNA, gene panel)
Experimental: as §1, §2, §3, §4, §5, §6, §7

[4] = system: HTT mRNA; test: Splicing RT-qPCR gene panel, HTT canonical junction (CJ) mRNA; details: Tables 4A/4B, read-out: HTT (IC50, decrease in CJ mRNA, gene panel)
Experimental: as §1, §2, §3, §4, §5, §6, §7

| Compound | IC50 ([1]; Homo sapiens) [µM] | IC50 ([2]; Homo sapiens) [µM] | IC50 ([3]; Homo sapiens) [µM] | IC50 ([4]; Homo sapiens) [µM] | IC50 [1] [µM] | IC50 [2] [µM] | IC50 [3] [µM] | IC50 [4] [µM] |
| --- | --- | --- | --- | --- | --- | --- | --- | --- |
| Cc1cn2cc(NC(=O)c3ccc(N4CCC(NC(C)(C)C)C4)c4cc(C)oc34)cc(F)c2n1 (stereo not drawn) [Compound 203] | 0.1 to 1 | < 0.1 | > 10 | > 10 |  |  |  |  |
| Cc1cn2cc(NC(=O)c3ccc(N4CCN(C)CC4)c4cn(C)nc34)cc(F)c2n1 [Compound 207] | < 0.1 | < 0.1 | 1 to 10 | 0.1 to 1 |  |  |  |  |
| Cc1cn2cc(NC(=O)c3ccc(C4C[C@@H](C)N[C@@H](C)C4)c4cn(C)nc34)cc(F)c2n1 (stereo partly drawn) [Compound 211] | 0.1 to 1 | < 0.1 | 1 to 10 | 1 to 10 |  |  |  |  |
| Cc1cc2c(N3CCNCC3)ccc(C(=O)Nc3cc(F)c4nc(C)oc4c3)c2o1 [Compound 218] | 0.1 to 1 | < 0.1 | 1 to 10 | 1 to 10 |  |  |  |  |
| Cc1cn2cc(NC(=O)c3ccc(N4CCNC(C)C4)c4cn(C)nc34)cc(F)c2n1 (stereo not drawn) [Compound 228] | < 0.1 | < 0.1 | 0.1 to 1 | 0.1 to 1 |  |  |  |  |
| Cc1nc2c(F)cc(NC(=O)c3ccc(N4CCNCC4)c4cn(C)nc34)cc2o1 [Compound 234] | < 0.1 | < 0.1 | 1 to 10 | 1 to 10 |  |  |  |  |
| Cc1cn2cc(NC(=O)c3ccc(N4CCNC5(CC5)C4)c4cn(C)nc34)cc(F)c2n1 [Compound 241] | 0.1 to 1 | < 0.1 | 1 to 10 | 0.1 to 1 |  |  |  |  |
| Cc1cn2cc(NC(=O)c3ccc(N4CCN5CCCC5C4)c4cn(C)nc34)cc(F)c2n1 (stereo not drawn) [Compound 250] | < 0.1 | < 0.1 | 0.1 to 1 | < 0.1 |  |  |  |  |
| Cc1cn2cc(NC(=O)c3ccc(N4CCC(N(C)C)CC4)c4cn(C)nc34)cc(F)c2n1 [Compound 251] | < 0.1 | < 0.1 | 1 to 10 | 0.1 to 1 |  |  |  |  |
| CCNC1CCN(c2ccc(C(=O)Nc3cc(F)c4nc(C)cn4c3)c3nn(C)cc23)CC1 [Compound 252] | < 0.1 | < 0.1 | 0.1 to 1 | 0.1 to 1 |  |  |  |  |
| Cc1cn2cc(NC(=O)c3ccc(N4CCNC(C)C4)c4cn(C)nc34)cc(Cl)c2n1 (stereo not drawn) [Compound 277] | < 0.1 | < 0.1 | 1 to 10 | 0.1 to 1 |  |  |  |  |
| Cc1cn2cc(NC(=O)c3ccc(N4C[C@H]5CC[C@@H](C4)N5)c4cn(C)nc34)cc(Cl)c2n1 [Compound 279] | < 0.1 | < 0.1 | 1 to 10 | 1 to 10 |  |  |  |  |
| CCn1cc2c(N3CCNCC3)ccc(C(=O)Nc3cc(Cl)c4nc(C)cn4c3)c2n1 [Compound 284] | < 0.1 | < 0.1 | 1 to 10 | 1 to 10 |  |  |  |  |
| Cc1cn2cc(NC(=O)c3ccc(N4CCNCC4)c4cn(C)nc34)cc(Cl)c2n1 [Compound 285] |  |  |  |  | < 0.1 | < 0.1 | 0.1 to 1 | 0.1 to 1 |
| CCn1cc2c(N3CCNCC3)ccc(C(=O)Nc3cc(F)c4nc(C)cn4c3)c2n1 [Compound 288, 2-ethyl-N-{8-fluoro-2-methylimidazo[1,2-a]pyridin-6-yl}-4-(piperazin-1-yl)indazole-7-carboxamide] | < 0.1 | < 0.1 | 1 to 10 | 1 to 10 |  |  |  |  |
| Cc1cn2cc(NC(=O)c3c(F)cc(N4CCNCC4)c4cn(C)nc34)cc(F)c2n1 [Compound 361, 6-fluoro-N-{8-fluoro-2-methylimidazo[1,2-a]pyridin-6-yl}-2-methyl-4-(piperazin-1-yl) indazole-7-carboxamide] | < 0.1 | < 0.1 | < 0.1 | < 0.1 |  |  |  |  |
| C=Cn1cc2c(N3CCNCC3)ccc(C(=O)Nc3cc(F)c4nc(C)cn4c3)c2n1 [Compound 363, 2-ethenyl-N-{8-fluoro-2-methylimidazo[1,2-a]pyridin-6-yl}-4-(piperazin-1-yl) indazole-7-carboxamide] | < 0.1 | < 0.1 | < 0.1 | < 0.1 |  |  |  |  |
| Cc1cn2cc(N(C)C(=O)c3ccc(N4CCNCC4)c4cn(C)nc34)cc(F)c2n1 [Compound 386, N-{8-fluoro-2-methylimidazo[1,2-a]pyridin-6-yl}-N,2-dimethyl-4-(piperazin-1-yl) indazole-7-carboxamide] | > 10 | > 10 | > 10 | > 10 |  |  |  |  |
| Cc1cn2cc(NC(=O)c3ccc(N4CCC5(CC4)CCN5C)c4cn(C)nc34)cc(F)c2n1 [Compound 422, N-{8-fluoro-2-methylimidazo[1,2-a]pyridin-6-yl}-2-methyl-4-{1-methyl-1,7-diazaspiro[3.5]nonan-7-yl}indazole-7-carboxamide; bis(trifluoroacetic acid)] | < 0.1 | < 0.1 | 0.1 to 1 | < 0.1 |  |  |  |  |
| CCOc1nc(NC(=O)c2ccc(N3CC[C@@H](NC)C3)c3cn(C)nc23)cn2cc(C)nc12 [Compound 433] | 0.1 to 1 | < 0.1 | 1 to 10 | 1 to 10 |  |  |  |  |
| C=C(C)n1cc2c(N3CCNCC3)ccc(C(=O)Nc3cc(F)c4nc(C)cn4c3)c2n1 [Compound 440, N-{8-fluoro-2-methylimidazo[1,2-a]pyridin-6-yl}-4-(piperazin-1-yl)-2-(prop-1-en-2-yl) indazole-7-carboxamide] | < 0.1 | < 0.1 | 1 to 10 | < 0.1 |  |  |  |  |

From patent publication US20250154169A1, “COMPOUNDS AND METHODS FOR MODULATING SPLICING” (REMIX THERAPEUTICS INC., priority 2021, published 2025)
